Measurements reported in ChEMBL document CHEMBL3886216, “Triazine carboxamides as sodium channel blockers” (2015).

Molecular target: Sodium channel protein type 9 subunit alpha (Homo sapiens, UniProt Q15858)
Experiment: FLIPR Assay: […] Sodium Dye Assay with KCl: Cells were prepared by plating the recombinant HEK293 cells or other host cells expressing either recombinant or non-recombinant, native, Nav1.7 alpha subunit, alone or in combination with various beta and gamma subunits at a density of ~40,000 cells/well into a 96-well black, clear-bottom, PDL-coated plate. The assay can be adapted to 384-well or 1,536-well format, if desired, using proportionately fewer cells and less media. The plate was then incubated in growth media, with or without selective antibiotic, overnight at 37 C. at 5% CO2, 95% humidity, in preparation for the assay. For counter-screens of other voltage-gated sodium channels, the procedure was very similar, though optimal densities of cells, media and subsequent assay components can be fine-tuned for the particular cell line or isoform. […] Membrane Potential Assay with KCl: Cells are prepared by plating the recombinant HEK293 cells.
Type: cell-based

Chain of Sodium channel protein type 9 subunit alpha (Q15858 whole entry): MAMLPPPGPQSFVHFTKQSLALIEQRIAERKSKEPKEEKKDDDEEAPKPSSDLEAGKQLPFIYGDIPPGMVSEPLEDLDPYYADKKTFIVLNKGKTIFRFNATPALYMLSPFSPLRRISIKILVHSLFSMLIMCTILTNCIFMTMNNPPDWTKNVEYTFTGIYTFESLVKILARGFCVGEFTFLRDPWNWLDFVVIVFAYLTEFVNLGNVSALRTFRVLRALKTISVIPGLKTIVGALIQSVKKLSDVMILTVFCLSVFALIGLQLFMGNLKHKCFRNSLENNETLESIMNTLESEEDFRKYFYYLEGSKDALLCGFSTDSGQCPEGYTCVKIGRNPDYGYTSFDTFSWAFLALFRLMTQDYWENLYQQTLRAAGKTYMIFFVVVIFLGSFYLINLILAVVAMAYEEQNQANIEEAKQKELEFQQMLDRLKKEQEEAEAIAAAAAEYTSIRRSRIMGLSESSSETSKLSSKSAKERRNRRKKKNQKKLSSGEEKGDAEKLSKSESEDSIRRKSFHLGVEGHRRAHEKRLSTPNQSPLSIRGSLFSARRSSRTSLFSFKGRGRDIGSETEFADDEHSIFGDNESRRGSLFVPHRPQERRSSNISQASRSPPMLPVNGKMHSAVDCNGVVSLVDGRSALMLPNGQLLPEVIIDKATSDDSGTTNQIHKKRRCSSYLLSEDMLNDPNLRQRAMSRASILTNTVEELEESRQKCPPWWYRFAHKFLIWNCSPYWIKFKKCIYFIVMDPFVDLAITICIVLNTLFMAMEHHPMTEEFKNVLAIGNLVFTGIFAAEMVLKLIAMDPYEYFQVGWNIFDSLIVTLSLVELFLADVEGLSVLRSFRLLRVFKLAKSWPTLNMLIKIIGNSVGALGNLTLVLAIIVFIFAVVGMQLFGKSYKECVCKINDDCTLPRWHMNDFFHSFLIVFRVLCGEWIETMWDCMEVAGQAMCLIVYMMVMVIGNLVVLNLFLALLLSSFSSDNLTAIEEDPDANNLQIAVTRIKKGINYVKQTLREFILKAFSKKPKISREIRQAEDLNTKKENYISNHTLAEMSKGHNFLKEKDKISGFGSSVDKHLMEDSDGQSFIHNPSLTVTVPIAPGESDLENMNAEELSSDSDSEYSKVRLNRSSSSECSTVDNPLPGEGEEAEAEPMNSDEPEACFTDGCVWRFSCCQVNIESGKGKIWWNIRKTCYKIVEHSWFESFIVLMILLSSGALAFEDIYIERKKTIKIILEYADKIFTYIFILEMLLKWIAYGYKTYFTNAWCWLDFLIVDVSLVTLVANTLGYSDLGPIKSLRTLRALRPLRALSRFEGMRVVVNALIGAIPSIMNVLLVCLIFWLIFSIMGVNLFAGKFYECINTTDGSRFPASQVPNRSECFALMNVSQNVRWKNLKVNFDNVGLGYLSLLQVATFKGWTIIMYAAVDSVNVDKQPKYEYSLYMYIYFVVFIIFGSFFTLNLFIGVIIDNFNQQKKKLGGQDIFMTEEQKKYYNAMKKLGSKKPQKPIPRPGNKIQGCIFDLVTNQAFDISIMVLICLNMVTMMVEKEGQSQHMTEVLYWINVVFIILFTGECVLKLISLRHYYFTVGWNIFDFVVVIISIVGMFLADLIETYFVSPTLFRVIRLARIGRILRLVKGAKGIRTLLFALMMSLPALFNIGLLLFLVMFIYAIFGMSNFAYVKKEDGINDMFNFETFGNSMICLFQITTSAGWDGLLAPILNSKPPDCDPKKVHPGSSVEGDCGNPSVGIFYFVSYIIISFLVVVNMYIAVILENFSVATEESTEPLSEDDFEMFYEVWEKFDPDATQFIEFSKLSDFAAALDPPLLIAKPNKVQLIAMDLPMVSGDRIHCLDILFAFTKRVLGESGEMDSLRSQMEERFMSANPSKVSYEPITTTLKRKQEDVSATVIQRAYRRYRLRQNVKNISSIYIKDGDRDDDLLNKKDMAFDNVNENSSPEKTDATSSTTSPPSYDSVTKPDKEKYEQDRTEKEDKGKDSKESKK

Compound	IC50
N#Cc1nc(-c2ccc(Oc3ccc(OC(F)(F)F)cc3)cc2)nc(N2CCOCC2)n1	> 20 µM
NC(=O)c1nc(N[C@H]2CCNC2=O)nc(-c2ccc(Oc3ccc(C(F)(F)F)cn3)cc2)n1	1.8 µM
N#Cc1nc(N[C@H]2CCNC2=O)nc(-c2ccc(Oc3ccc(C(F)(F)F)cn3)cc2)n1	> 20 µM
